The nature of test [1]: Calcemic action in normal rats (blood ionized calcium). In kind it is in vivo. Conditions: for calcemic action compared with control peptides, in words: normal and TPTX rats. As for the experimental part: Binding to the rat PTHR was also measured in vitro.
Concentration of peptides in stock solution were adjusted by dilution with 25 mmol/L phosphate-citrate buffer/100 mmol/L NaCl/0.05% Tween 80 (pH. 5.0) (PC-buffer). All peptides were allowed to stand on ice immediately before administration.
Female SD-IGS rat at 8 weeks of age (Charles River Japan, Inc.) were measured for their body weight. Blood was collected by tail vein into heparinized capillary tubes and measured for baseline levels of blood ionized calcium and pH using Ca^++/pH analyzer (Model 634/Bayer Medical Ltd.) to give the corrected level of ionized calcium at pH 7.4 for each sample. Rats received intravenous administration of each peptides at a dose of 1 ml/kg. Peptides were administered to groups of 6 rats each respectively. At 1, 2, 4, or 6 hours after administration, blood was collected by tail vein to monitor the time course of corrected blood ionized calcium levels. The time course of changes in corrected ionized calcium levels, compared to vehicle, and are expressed as means+/−standard error.

Test [2] concerns the target T1, human PTH receptor (Homo sapiens, UniProt Q03431).
T1 construct: expressed in transfected cells
Description: cAMP in HRKRK-B7 cells EC50 (nM). The text has this:
Table printed on a drawing sheet, Figure 25
Head of the field: cAMP in HRKRK-B7 cells EC50 (nM)
First copying reader's note: The column head prints the cell line as HRKRK-B7 while the title prints HKRK-B7.

Test [3] deals with hPTH1R (RG form of the human PTH receptor). Description: RG memb: hPTH1R+dnGS *M-PTH(1-15).
For test [4], the system named is PTHR-CFPIC3/YFPCT (PTHR-cam). Description: FRET analysis of ligand binding/receptor activation in HEK-293 cells. Type of test: cell-based, human.
Description: HEK-293 cells stably transfected with a PTHR construct (PTHR-cam) containing cyan fluorescent protein (CFP) in the third intracellular loop and yellow fluorescent protein (YFP) in the carboxy-terminal tail, were used to assess the kinetics of ligand binding to, and dissociation from the PTHR. With PTHR-cam, excitation of the CFP with ultraviolet light (λexc=436 nm) produces an intramolecular FRET to the YFP, which is observable as an increase in light emission from YFP (λemm=535 nm) and a decrease in light emission from CFP λemm=480 nm). This FRET signal occurs in the ground-state receptor and decreases upon agonist binding. […] Data are from a single experiment, and identical results were obtained in at least three others.
The approach used exploits an intramolecular FRET signal that occurs in a human PTHR construct, PTHR-CFPIC3/YFPCT (formerly called PTHR-cam). This construct contains cyan-fluorescent protein (CFP) in the third intracellular loop and yellow-fluorescent protein (YFP) in the carboxy-terminal tail. A FRET signal is produced by PTHR-CFPIC3/YFPCT in the basal state, and this signal diminishes upon agonist binding, likely due to conformational change that occurs upon activation.
HEK-293 cells stably expressing HEK-PTHR-CFPIC3/YFPCT (previously called HEK-PTHR-Cam cells (Vilardaga et al., Nat. Biotechnol. 21:807-812 (2003)) were grown on glass coverslips and processed for FRET analysis as described. With these cells, excitation of the CFP (donor) in PTHR-CFPIC3/YFPCT with ultraviolet light (λmax.ex.=436 nm; λmax.em.=480 nm) produces an intramolecular FRET to the YFP (acceptor), resulting in emission from that YFP (λmax.ex.=480 nm, λmax.em.=535 nm). This FRET response is observable as a decrease in intensity of CFP light emission at 480 nm, and an increase in intensity of YFP light emission at 535 nm. The FRET signal is produced by PTHR-CFPIC3/YFPCT in the ground-state receptor and decreases upon binding of an agonist. […] Fluorescence was monitored using a Zeiss inverted microscope equipped with a 100× objective and a dual emission photometric system (Til Photonics), coupled to an avalanche photodiode detection system and an analog-digital converter (Axon Instruments). The FRET signal detected upon excitation at 436 nm was calculated as the normalized FRET ratio: FYFP(535 nm)/FCFP(480 nm) where FYFP(535 nm) is the emission at 535 nm, corrected for spillover of the CFP signal into the YFP channel, and FCFP(480 nm) is the emission at 480 nm, corrected for spillover (minimal) of the YFP emission into the CFP channel. Changes in fluorescence emissions due to photo-bleaching were subtracted.

Square brackets hold non-standard residues; d marks the D form. Ends that are not written are not given here. Peptide text beside a SMILES is read from it. hArg = N=C(N)NCCCC[C@H](N)C(=O)O; Aib = CC(C)(N)C(=O)O

T1 sequence (Q03431 27-593 limits assumed): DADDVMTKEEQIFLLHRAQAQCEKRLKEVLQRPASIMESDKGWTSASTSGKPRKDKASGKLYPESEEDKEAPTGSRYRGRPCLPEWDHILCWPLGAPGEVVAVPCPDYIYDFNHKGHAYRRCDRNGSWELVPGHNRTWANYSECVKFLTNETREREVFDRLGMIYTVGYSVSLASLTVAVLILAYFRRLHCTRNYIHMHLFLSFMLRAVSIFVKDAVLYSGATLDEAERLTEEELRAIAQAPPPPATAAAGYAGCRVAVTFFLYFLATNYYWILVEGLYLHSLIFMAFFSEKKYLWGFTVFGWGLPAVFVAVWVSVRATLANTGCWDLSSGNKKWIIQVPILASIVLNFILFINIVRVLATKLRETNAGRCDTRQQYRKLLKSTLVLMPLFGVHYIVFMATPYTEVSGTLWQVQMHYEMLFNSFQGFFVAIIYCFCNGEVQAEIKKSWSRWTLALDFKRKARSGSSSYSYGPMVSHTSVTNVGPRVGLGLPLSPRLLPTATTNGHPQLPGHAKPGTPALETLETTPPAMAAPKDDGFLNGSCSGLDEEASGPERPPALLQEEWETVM

For the molecule `CC[C@H](C)[C@H](NC(=O)[C@H](CCC(=O)O)NC(=O)[C@H](C)NC(=O)[C@@H](NC(=O)[C@H](Cc1c[nH]cn1)NC(=O)[C@@H](NC(=O)[C@H](CCC(=O)O)NC(=O)[C@H](C)NC(=O)[C@@H](NC(=O)[C@H](CC(C)C)NC(=O)[C@H](Cc1c[nH]cn1)NC(=O)[C@H](Cc1c[nH]cn1)NC(=O)[C@H](CC(C)C)NC(=O)[C@H](Cc1ccccc1)NC(=O)[C@H](Cc1ccccc1)NC(=O)[C@H](CCCNC(=N)N)NC(=O)[C@H](CCCNC(=N)N)NC(=O)[C@H](CCCNC(=N)N)NC(=O)[C@H](CC(C)C)NC(=O)[C@H](CC(=O)O)NC(=O)[C@H](CCC(N)=O)NC(=O)[C@@H](NC(=O)[C@H](Cc1c[nH]cn1)NC(=O)[C@H](CCCCN)NC(=O)CNC(=O)[C@H](CC(C)C)NC(=O)[C@H](CC(N)=O)NC(=O)[C@H](Cc1c[nH]cn1)NC(=O)[C@H](CCSC)NC(=O)[C@H](CC(C)C)NC(=O)[C@H](CCC(N)=O)NC(=O)[C@@H](NC(=O)[C@H](CCC(=O)O)NC(=O)[C@H](CO)NC(=O)[C@@H](NC(=O)[C@@H](N)CO)C(C)C)[C@@H](C)CC)[C@@H](C)CC)[C@@H](C)CC)[C@@H](C)CC)[C@@H](C)O)C(=O)O` [PTH(1-14)/PTHrP(15-36), hPTH(1-14)/PTHrP(15-36)] (H-SVSEIQLMHNLGKHIQDLRRRFFLHHLIAEIHTAEI-OH), in test [1], the “calcemic action compared with control peptides, in words” value was “higher calcemic actions than did PTH(1-34)”. This molecule returned an EC50 in test [2] of 1.35 nM.
The matching figures for `CC[C@H](C)[C@H](NC(=O)[C@H](CCC(=O)O)NC(=O)[C@H](C)NC(=O)[C@@H](NC(=O)[C@H](Cc1c[nH]cn1)NC(=O)[C@@H](NC(=O)[C@H](CCC(=O)O)NC(=O)[C@H](C)NC(=O)[C@@H](NC(=O)[C@H](CC(C)C)NC(=O)[C@H](Cc1c[nH]cn1)NC(=O)[C@H](Cc1c[nH]cn1)NC(=O)[C@H](CC(C)C)NC(=O)[C@H](Cc1ccccc1)NC(=O)[C@H](Cc1ccccc1)NC(=O)[C@H](CCCNC(=N)N)NC(=O)[C@H](CCCNC(=N)N)NC(=O)[C@H](CCCNC(=N)N)NC(=O)[C@H](CCSC)NC(=O)[C@H](CO)NC(=O)[C@H](CC(N)=O)NC(=O)[C@H](CC(C)C)NC(=O)[C@H](Cc1c[nH]cn1)NC(=O)[C@H](CCCCN)NC(=O)CNC(=O)[C@H](CC(C)C)NC(=O)[C@H](CC(N)=O)NC(=O)[C@H](Cc1c[nH]cn1)NC(=O)[C@H](CCSC)NC(=O)[C@H](CC(C)C)NC(=O)[C@H](CCC(N)=O)NC(=O)[C@@H](NC(=O)[C@H](CCC(=O)O)NC(=O)[C@H](CO)NC(=O)[C@@H](NC(=O)[C@@H](N)CO)C(C)C)[C@@H](C)CC)[C@@H](C)CC)[C@@H](C)CC)[C@@H](C)O)C(=O)O` [PTH(1-18)/PTHrP(19-36), hPTH(1-18)/PTHrP(19-36)] (H-SVSEIQLMHNLGKHLNSMRRRFFLHHLIAEIHTAEI-OH): “higher calcemic actions than did PTH(1-34)” and 1.34 nM.
Turning to `CC[C@H](C)[C@H](NC(=O)[C@H](CCC(=O)O)NC(=O)[C@H](C)NC(=O)[C@@H](NC(=O)[C@H](Cc1c[nH]cn1)NC(=O)[C@@H](NC(=O)[C@H](CC(=O)O)NC(=O)[C@H](CCC(N)=O)NC(=O)[C@H](CC(C)C)NC(=O)[C@H](CCCCN)NC(=O)[C@H](CCCCN)NC(=O)[C@H](CCCNC(=N)N)NC(=O)[C@H](CC(C)C)NC(=O)[C@H](Cc1c[nH]c2ccccc12)NC(=O)[C@H](CCC(=O)O)NC(=O)[C@@H](NC(=O)[C@H](CCCNC(=N)N)NC(=O)[C@H](CCC(=O)O)NC(=O)[C@H](CCSC)NC(=O)[C@H](CO)NC(=O)[C@H](CC(N)=O)NC(=O)[C@H](CC(C)C)NC(=O)[C@H](Cc1c[nH]cn1)NC(=O)[C@H](CCCCN)NC(=O)CNC(=O)[C@H](CC(C)C)NC(=O)[C@H](CC(N)=O)NC(=O)[C@H](Cc1c[nH]cn1)NC(=O)[C@H](CCSC)NC(=O)[C@H](CC(C)C)NC(=O)[C@H](CCC(N)=O)NC(=O)[C@@H](NC(=O)[C@H](CCC(=O)O)NC(=O)[C@H](CO)NC(=O)[C@@H](NC(=O)[C@@H](N)CO)C(C)C)[C@@H](C)CC)C(C)C)[C@@H](C)CC)[C@@H](C)O)C(=O)O` [PTH(1-30)/PTHrP(31-36)], the midpoint of inhibition in test [3], the IC50, lay at 0.17 nM. In test [2], this molecule came in with a concentration for a half-maximal effect (EC50) of 0.78 nM.
Regarding `CC[C@H](C)[C@H](NC(=O)[C@H](CCC(=O)O)NC(=O)[C@H](CO)NC(=O)[C@@H](NC(=O)[C@@H](N)CO)C(C)C)C(=O)N[C@@H](CCC(N)=O)C(=O)N[C@@H](CC(C)C)C(=O)N[C@@H](CCSC)C(=O)N[C@@H](Cc1c[nH]cn1)C(=O)N[C@@H](CC(N)=O)C(=O)N[C@@H](CC(C)C)C(=O)NCC(=O)N[C@@H](CCCCN)C(=O)N[C@@H](Cc1c[nH]cn1)C(=O)N[C@@H](CC(C)C)C(=O)N[C@@H](CC(N)=O)C(=O)N[C@@H](CO)C(=O)N[C@@H](CCSC)C(=O)N[C@@H](CCC(=O)O)C(=O)N[C@@H](CCCNC(=N)N)C(=O)N[C@H](C(=O)N[C@@H](CCC(=O)O)C(=O)N[C@@H](Cc1c[nH]c2ccccc12)C(=O)N[C@@H](CC(C)C)C(=O)N[C@@H](CCCNC(=N)N)C(=O)N[C@@H](CCCCN)C(=O)N[C@@H](CCCCN)C(=O)N[C@@H](CC(C)C)C(=O)N[C@@H](CCC(N)=O)C(=O)N[C@@H](CC(=O)O)C(=O)N[C@H](C(=O)N[C@@H](Cc1c[nH]cn1)C(=O)N[C@@H](CC(N)=O)C(=O)N[C@@H](Cc1ccccc1)C(=O)O)C(C)C)C(C)C` [hPTH(1-34), Human parathyroid hormone (1-34)], in test [4], the “FRET signal after exchange to ligand-free buffer, in words” value is “remained suppressed” and the “reduction (magnitude) of FRET signal” value is listed as roughly 13%.
“AVAEIQLMHQRGKSIQDLRRRFFLHHLIAEIHTAEI (AVAEIQLMHQRGKSIQDLRRRFFLHHLIAEIHTAEI-OH) [Mc-PTH(1-11)/PTHrP(15-36)]”: in test [1] (normal rats, i.v.), the “calcemic action (blood ionized calcium), in words” value is on record as “Prolonged calcemic effects”.
For the molecule “[Aib^1,3,Gln^10,Har^11,Ala^12,Trp^14]rPTH(1-14)NH2 ([Aib]V[Aib]EIQLMHQ[hArg]AKW-NH2; N-terminus assumed; SMILES CC[C@H](C)[C@H](NC(=O)[C@H](CCC(=O)O)NC(=O)C(C)(C)NC(=O)[C@@H](NC(=O)C(C)(C)N)C(C)C)C(=O)N[C@@H](CCC(N)=O)C(=O)N[C@@H](CC(C)C)C(=O)N[C@@H](CCSC)C(=O)N[C@@H](Cc1c[nH]cn1)C(=O)N[C@@H](CCC(N)=O)C(=O)N[C@@H](CCCCNC(=N)N)C(=O)N[C@@H](C)C(=O)N[C@@H](CCCCN)C(=O)N[C@@H](Cc1c[nH]c2ccccc12)C(N)=O) [[Aib^1,3,M]PTH(1-14)]”, the “reduction (magnitude) of FRET signal” value in test [4] is roughly 5%.

The EC50 is the concentration giving half of the maximal effect. Low readings indicate a more potent agent, high ones a less potent agent. A word on the IC50: it is the concentration that gives 50% inhibition. A higher IC50 goes with a need for much substance.

The values are drawn from patent US9057727B2, “Screening methods using G-protein coupled receptors and related compositions” (The General Hospital Corporation, priority 2007, dated 2015).
